Data: patent US8148373B2, “Compounds” (AstraZeneca AB, priority 2008, dated 2012)

Tests used:
[1] = molecular target: T1, human muscarinic acetylcholine M3 receptor (M3-ACh) (Homo sapiens, UniProt P20309); assay: Muscarinic 3 Receptor Binding Assay, % inhibition specific binding at 1 μM; conditions: 1 μM compound, % inhibition specific [3H]-NMS binding
T1 construct: expressed in transfected cells; host or cells: CHO-K1 (Chinese Hamster Ovary) cell membranes
How it was run: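 Competition binding of 0.1 nM [3H]NMS to membranes from CHO-K1 cells expressing human M3, SPA format, with compound at 1 μM in 20 mM HEPES pH 7.4, 5 mM MgCl2, 1% DMSO. Incubated 16 h at room temperature; non-specific binding defined by 1 μM atropine; value is % inhibition of specific binding.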

[2] = molecular target: T2, Adrenergic β2 (H292 cells) (Homo sapiens, UniProt P07550); assay: Adrenergic β2 Mediated cAMP Production, single concentration 1 μM; type: cell-based; conditions: NCI-H292, 1 μM compound, percentage of the maximum response generated by 1E-07M formoterol, read-out: β2 (% effect at 1 μM)
T2 construct: endogenous in cells; host or cells: H292 cells
How it was run: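 H292 cells were plated overnight, pre-treated with 300 μM rolipram for 10 min, then exposed to compound at 1 μM final (1% DMSO) for 60 min at room temperature. cAMP in the lysates was measured by AlphaScreen against a standard curve and expressed as % of the maximal response to 1E-07M formoterol.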

T1 sequence (P20309 whole entry): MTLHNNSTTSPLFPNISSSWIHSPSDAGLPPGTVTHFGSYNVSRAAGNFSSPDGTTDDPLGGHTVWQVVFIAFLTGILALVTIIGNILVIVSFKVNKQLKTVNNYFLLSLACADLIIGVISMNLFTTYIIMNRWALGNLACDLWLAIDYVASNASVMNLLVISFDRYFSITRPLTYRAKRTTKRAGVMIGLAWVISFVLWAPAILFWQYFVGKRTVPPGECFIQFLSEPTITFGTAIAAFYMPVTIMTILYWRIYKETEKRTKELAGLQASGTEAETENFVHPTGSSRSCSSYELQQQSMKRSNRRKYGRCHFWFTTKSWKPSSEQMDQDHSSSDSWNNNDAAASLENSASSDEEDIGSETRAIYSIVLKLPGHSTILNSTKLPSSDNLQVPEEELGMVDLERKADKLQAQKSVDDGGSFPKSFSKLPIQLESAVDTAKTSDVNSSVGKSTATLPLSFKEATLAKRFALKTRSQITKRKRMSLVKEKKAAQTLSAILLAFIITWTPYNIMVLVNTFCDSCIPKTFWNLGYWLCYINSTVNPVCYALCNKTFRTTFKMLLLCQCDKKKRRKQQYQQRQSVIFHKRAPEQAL
T2 sequence (P07550 whole entry): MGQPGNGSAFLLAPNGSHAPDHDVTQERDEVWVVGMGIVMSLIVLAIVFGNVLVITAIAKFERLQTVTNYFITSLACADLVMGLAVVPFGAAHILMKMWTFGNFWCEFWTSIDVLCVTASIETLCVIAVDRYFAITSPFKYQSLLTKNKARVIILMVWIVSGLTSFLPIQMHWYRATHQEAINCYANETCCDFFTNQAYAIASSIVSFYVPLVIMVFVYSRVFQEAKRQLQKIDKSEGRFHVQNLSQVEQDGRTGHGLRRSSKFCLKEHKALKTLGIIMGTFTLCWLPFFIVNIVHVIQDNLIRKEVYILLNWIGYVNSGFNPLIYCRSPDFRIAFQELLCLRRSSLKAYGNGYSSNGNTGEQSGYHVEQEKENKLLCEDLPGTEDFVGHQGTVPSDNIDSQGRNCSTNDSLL

Compound | inhibition at 1 µM [1] | activation at 1 µM [2]
O=C(CCc1ccccc1)N1CCOC2(CCN(CCCCCCCCCNC[C@H](O)c3ccc(O)c4[nH]c(=O)sc34)CC2)C1 [Example 187, (R)-4-hydroxy-7-(1-hydroxy-2-(9-(4-(3-phenylpropanoyl)-1-oxa-4,9-diazaspiro[5.5]undecan-9-yl)nonylamino)ethyl)benzo[d]thiazol-2(3H)-one] | 84% | 92%
O=C(CCCc1ccccc1)N1CCOC2(CCN(CCCCCCCCCNC[C@H](O)c3ccc(O)c4[nH]c(=O)sc34)CC2)C1 [Example 188, (R)-4-hydroxy-7-(1-hydroxy-2-(9-(4-(4-phenylbutanoyl)-1-oxa-4,9-diazaspiro[5.5]undecan-9-yl)nonylamino)ethyl)benzo[d]thiazol-2(3H)-one] | 96% | 93%
CC(C)(C(=O)N1CCOC2(CCN(CCCCCCCCCNC[C@H](O)c3ccc(O)c4[nH]c(=O)sc34)CC2)C1)c1ccccc1 [Example 189, (R)-4-hydroxy-7-(1-hydroxy-2-(9-(4-(2-methyl-2-phenylpropanoyl)-1-oxa-4,9-diazaspiro[5.5]undecan-9-yl)nonylamino)ethyl)benzo[d]thiazol-2(3H)-one] | 96% | 93%
Cc1ccsc1C(=O)N1CCOC2(CCN(CCCCCCCCCNC[C@H](O)c3ccc(O)c4[nH]c(=O)sc34)CC2)C1 [Example 191, (R)-4-hydroxy-7-(1-hydroxy-2-(9-(4-(3-methylthiophene-2-carbonyl)-1-oxa-4,9-diazaspiro[5.5]undecan-9-yl)nonylamino)ethyl)benzo[d]thiazol-2(3H)-one] | 94% | 82%
O=C(Cc1ccsc1)N1CCOC2(CCN(CCCCCCCCCNC[C@H](O)c3ccc(O)c4[nH]c(=O)sc34)CC2)C1 [Example 192, (R)-4-hydroxy-7-(1-hydroxy-2-(9-(4-(2-(thiophen-3-yl)acetyl)-1-oxa-4,9-diazaspiro[5.5]undecan-9-yl)nonylamino)ethyl)benzo[d]thiazol-2(3H)-one] | 96% | 88%
Cc1ccoc1C(=O)N1CCOC2(CCN(CCCCCCCCCNC[C@H](O)c3ccc(O)c4[nH]c(=O)sc34)CC2)C1 [Example 193, (R)-4-hydroxy-7-(1-hydroxy-2-(9-(4-(3-methylfuran-2-carbonyl)-1-oxa-4,9-diazaspiro[5.5]undecan-9-yl)nonylamino)ethyl)benzo[d]thiazol-2(3H)-one] | 99% | 91%
O=C(c1cc2ccccc2s1)N1CCOC2(CCN(CCCCCCCCCNC[C@H](O)c3ccc(O)c4[nH]c(=O)sc34)CC2)C1 [Example 194, (R)-7-(2-(9-(4-(benzo[b]thiophene-2-carbonyl)-1-oxa-4,9-diazaspiro[5.5]undecan-9-yl)nonylamino)-1-hydroxyethyl)-4-hydroxybenzo[d]thiazol-2(3H)-one] | 85% | 92%
Cc1cc(C(=O)N2CCOC3(CCN(CCCCCCCCCNC[C@H](O)c4ccc(O)c5[nH]c(=O)sc45)CC3)C2)oc1C [Example 195, (R)-7-(2-(9-(4-(4,5-dimethylfuran-2-carbonyl)-1-oxa-4,9-diazaspiro[5.5]undecan-9-yl)nonylamino)-1-hydroxyethyl)-4-hydroxybenzo[d]thiazol-2(3H)-one] | 88% | 86%
Cc1cccc(C(=O)N2CCOC3(CCN(CCCCCCCCCNC[C@H](O)c4ccc(O)c5[nH]c(=O)sc45)CC3)C2)n1 [Example 196, (R)-4-hydroxy-7-(1-hydroxy-2-(9-(4-(6-methylpicolinoyl)-1-oxa-4,9-diazaspiro[5.5]undecan-9-yl)nonylamino)ethyl)benzo[d]thiazol-2(3H)-one] | 95% | 89%
Cc1occc1C(=O)N1CCOC2(CCN(CCCCCCCCCNC[C@H](O)c3ccc(O)c4[nH]c(=O)sc34)CC2)C1 [Example 197, (R)-4-hydroxy-7-(1-hydroxy-2-(9-(4-(2-methylfuran-3-carbonyl)-1-oxa-4,9-diazaspiro[5.5]undecan-9-yl)nonylamino)ethyl)benzo[d]thiazol-2(3H)-one] | 97% | 78%
O=C(COc1ccccc1)N1CCOC2(CCN(CCCCCCCCCNC[C@H](O)c3ccc(O)c4[nH]c(=O)sc34)CC2)C1 [Example 199, (R)-4-hydroxy-7-(1-hydroxy-2-(9-(4-(2-phenoxyacetyl)-1-oxa-4,9-diazaspiro[5.5]undecan-9-yl)nonylamino)ethyl)benzo[d]thiazol-2(3H)-one] | 91% | 91%
Cc1ccnn1CC(=O)N1CCOC2(CCN(CCCCCCCCCNC[C@H](O)c3ccc(O)c4[nH]c(=O)sc34)CC2)C1 [Example 200, (R)-4-hydroxy-7-(1-hydroxy-2-(9-(4-(2-(5-methyl-1H-pyrazol-1-yl)acetyl)-1-oxa-4,9-diazaspiro[5.5]undecan-9-yl)nonylamino)ethyl)benzo[d]thiazol-2(3H)-one] | 70% | 92%
O=C(COCc1ccccc1)N1CCOC2(CCN(CCCCCCCCCNC[C@H](O)c3ccc(O)c4[nH]c(=O)sc34)CC2)C1 [Example 203, (R)-7-(2-(9-(4-(2-(benzyloxy)acetyl)-1-oxa-4,9-diazaspiro[5.5]undecan-9-yl)nonylamino)-1-hydroxyethyl)-4-hydroxybenzo[d]thiazol-2(3H)-one] | 94% | 99%
Cc1ccn(CC(=O)N2CCOC3(CCN(CCCCCCCCCNC[C@H](O)c4ccc(O)c5[nH]c(=O)sc45)CC3)C2)n1 [Example 204, (R)-4-hydroxy-7-(1-hydroxy-2-(9-(4-(2-(3-methyl-1H-pyrazol-1-yl)acetyl)-1-oxa-4,9-diazaspiro[5.5]undecan-9-yl)nonylamino)ethyl)benzo[d]thiazol-2(3H)-one] | 97% | 101%
Cc1sccc1C(=O)N1CCOC2(CCN(CCCCCCCCCNC[C@H](O)c3ccc(O)c4[nH]c(=O)sc34)CC2)C1 [Example 205, (R)-4-hydroxy-7-(1-hydroxy-2-(9-(4-(2-methylthiophene-3-carbonyl)-1-oxa-4,9-diazaspiro[5.5]undecan-9-yl)nonylamino)ethyl)benzo[d]thiazol-2(3H)-one] | 91% | 85%
O=C(CCOc1ccccc1)N1CCOC2(CCN(CCCCCCCCCNC[C@H](O)c3ccc(O)c4[nH]c(=O)sc34)CC2)C1 [Example 206, (R)-4-hydroxy-7-(1-hydroxy-2-(9-(4-(3-phenoxypropanoyl)-1-oxa-4,9-diazaspiro[5.5]undecan-9-yl)nonylamino)ethyl)benzo[d]thiazol-2(3H)-one] | 95% | 95%
O=C(CCc1cccs1)N1CCOC2(CCN(CCCCCCCCCNC[C@H](O)c3ccc(O)c4[nH]c(=O)sc34)CC2)C1 [Example 207, (R)-4-hydroxy-7-(1-hydroxy-2-(9-(4-(3-(thiophen-2-yl)propanoyl)-1-oxa-4,9-diazaspiro[5.5]undecan-9-yl)nonylamino)ethyl)benzo[d]thiazol-2(3H)-one] | 94% | 101%
Cc1cc(CC(=O)N2CCOC3(CCN(CCCCCCCCCNC[C@H](O)c4ccc(O)c5[nH]c(=O)sc45)CC3)C2)on1 [Example 208, (R)-4-hydroxy-7-(1-hydroxy-2-(9-(4-(2-(3-methylisoxazol-5-yl)acetyl)-1-oxa-4,9-diazaspiro[5.5]undecan-9-yl)nonylamino)ethyl)benzo[d]thiazol-2(3H)-one] | 88% | 98%
Cc1nc(C)c(CC(=O)N2CCOC3(CCN(CCCCCCCCCNC[C@H](O)c4ccc(O)c5[nH]c(=O)sc45)CC3)C2)s1 [Example 211, (R)-7-(2-(9-(4-(2-(2,4-dimethylthiazol-5-yl)acetyl)-1-oxa-4,9-diazaspiro[5.5]undecan-9-yl)nonylamino)-1-hydroxyethyl)-4-hydroxybenzo[d]thiazol-2(3H)-one] | 68% | 91%
O=C(c1ccsc1Cl)N1CCOC2(CCN(CCCCCCCCCNC[C@H](O)c3ccc(O)c4[nH]c(=O)sc34)CC2)C1 [Example 212, (R)-7-(2-(9-(4-(2-chlorothiophene-3-carbonyl)-1-oxa-4,9-diazaspiro[5.5]undecan-9-yl)nonylamino)-1-hydroxyethyl)-4-hydroxybenzo[d]thiazol-2(3H)-one] | 88% | 93%
CC(C)c1cc(C(=O)N2CCOC3(CCN(CCCCCCCCCNC[C@H](O)c4ccc(O)c5[nH]c(=O)sc45)CC3)C2)no1 [Example 214, (R)-4-hydroxy-7-(1-hydroxy-2-(9-(4-(5-isopropylisoxazole-3-carbonyl)-1-oxa-4,9-diazaspiro[5.5]undecan-9-yl)nonylamino)ethyl)benzo[d]thiazol-2(3H)-one] | 91% | 82%
Cc1nc2cc(C(=O)N3CCOC4(CCN(CCCCCCCCCNC[C@H](O)c5ccc(O)c6[nH]c(=O)sc56)CC4)C3)ccc2s1 [Example 215, (R)-4-hydroxy-7-(1-hydroxy-2-(9-(4-(2-methylbenzo[d]thiazole-5-carbonyl)-1-oxa-4,9-diazaspiro[5.5]undecan-9-yl)nonylamino)ethyl)benzo[d]thiazol-2(3H)-one] | 94% | 89%
